Measured values reported in patent US9932339B2, “Helquats with heteroaromatic substituents, preparation thereof, and use thereof as G-quadruplex stabilizers” (USTAV ORGANICKE CHEMIE A BIOCHEMIE AV CR, V.V.I., priority 2014, dated 2018).
Where two headings read alike, the source gives them in different places.

Tests used:
[1] = system: HUVEC; experiment: XTT cytotoxicity/proliferation assay, HUVEC; type: cell-based, human; settings: Homo sapiens, HUVEC
Method: To assess the antiproliferative effects of the tested substances in vitro, tumor cell line CCRF-CEM derived from acute lymphoblastic leukemia and normal (healthy) HUVEC endothelial cells from umbilical vein were used. Both of these cell lines were cultured under optimal conditions for their growth in the appropriate medium in plastic bottles or plastic Petri dishes of various sizes (TPP, BD Biosciences) at 37° C., 5% CO2 and 95% humidity. HUVEC cells were purchased from BD Biosciences. CCRF-CEM cell line was obtained from ATCC/LGC Standards (American Type Cell Collection). Normal human endothelial cells from the umbilical vein are adherent cells, which were grown in plastic Petri dishes coated with collagen I. The culture medium (E-STIMTM; BD Biosciences, cat. […] Then, 5 ml of complete culture media E-STIM™ was added and the cells were centrifuged (180×g, 7 minutes), resuspended and transferred in a desired amount in a new Petri dish with fresh medium. In the experiments cells between passages 3 and 8 (after thawing) were used. Population doubling time of HUVEC cells under the used culture conditions is 38 hours. For testing of the sensitivity of cell lines to studied helquats XTT cytotoxicity/proliferation assay for determination of cell viability was used. This method is based on the ability of metabolically active cells to reduce the yellow tetrazolium salt XTT to orange formazan. The rate of conversion is measured as the increase in absorbance at 492 nm and is proportional to the enzymatic activity of mitochondrial dehydrogenases and thus the number of metabolically active (viable) cells. […] Thus it reflects the effectiveness of the test substance towards the tested cell line. Cells in exponential growth phase were plated into 96-well microtiter plate at a concentration of 3000 cells per well. Each well contained 90 μl of cell suspension. The following day, 10 μl of 10× concentrated test substances was added. […] In addition to the part of the plate containing the mentioned dilutions of test compounds there were always two control columns present, first column with medium alone (i.e. blank) and the second column with the cells in medium without test compounds (control). Into the blank and control wells the same volume of solvent (water) as the volume of the substances was added. After 72 hours of treatment with substances the measurement of viability was performed according to the manufacturer instructions. Briefly, into each well of a 96-well microtiter plate 50 μl of the prepared working solution of XTT (detection reagent) was added and then the microtiter plate was returned to the CO2 incubator. After 2 hours, the absorbance of each well at 492 nm (reference wavelength 690 nm) was measured using a multifunctional microplate reader (Tecan Genios, Austria).

[2] = system: G-quadruplex in promoter region of the c-myc gene (NHE III1 segment); experiment: Dual luciferase analysis with plasmid pGL4.10-myc (luc2) in HGC-27 cells; type: cell-based, human; settings: for Quantification of expression relative to control (%): control = 100%; for activity at 50 µM / inhibition at 50 µM: Homo sapiens; for activity at 50 µM: helquat 50 μmol · l^−1, HGC-27, firefly normalized to Renilla, 24 hours after transfection, read-out: luciferase expression relative to control (control = 100%); for inhibition at 50 µM: HGC-27, text summary of tab. 5 (50 μmol·l^−1), read-out: inhibition of expression of firefly luciferase as compared to control
From the text: A dual luciferase analysis was used to determine the degree of stabilization of G-quadruplex in a promoter region of the c-myc gene on cellular level. Stabilization of G-quadruplex is expressed as the ratio of expression of two luciferases (firefly and Renilla) from the co-transfected vectors pGL4.10-myc (luc2) and pRL-TK (Renilla) into a cell line HGC-27 expressing c-myc protein. Expression of the reporter gene (firefly luciferase) from pGL4.10-myc vector is controlled by the c-myc regulatory region of a length of 860 by (in the range from −306 to +554). The inserted sequence contains NHE III1 segment which forms G-quadruplex [Yang, D. et al. (2010) Future Med Chem., 2, 619], and is responsible for as much as 90% of the transcriptional activity of the c-myc gene.
Level of expression of firefly luciferase reporter gene corresponds to promoter activity of c-myc and thus to the degree of stabilization of the G-quadruplex. The signal is normalized to Renilla luciferase expression from pRL-TK vector under the control of a constitutive viral thymidine kinase (HSV-TK) promoter. The amount of Renilla luciferase expression serves as an internal control for normalization of firefly signal on transfection efficiency in the sample. Plasmids pGL4.10-myc (luc2) and pRL-TK were propagated in Escherichia coli (DH5α strain) and purified using the Qiagen Plasmid Mini and Midi kits. Cells were cultured under standard conditions and in exponential growth phase were seeded into a white 96-well microtiter plates. Transfection was carried out using a transfection reagent X-tremeGENE HP DNA in OptiMEM media for two hours. The ratio of reporter and control vector was 1:1 and the ratio of transfection reagent to the total amount of DNA was 1:1. Two hours after transfection helquats were added in a concentration of 50 μmol·l^−1. Quantity of firefly and Renilla luciferases in the samples was determined 24 hours after transfection. Dual luciferase analysis was performed using a commercially available kit (Promega, cat. No. E1960) according to manufacturer's instructions. Luminescence was measured using a luminometer EnSpire Alpha Plate Reader. The data obtained were normalized to the Renilla luciferase signal and then the values were related to control.

[3] = system: CCRF-CEM; experiment: XTT cytotoxicity/proliferation assay, CCRF-CEM; type: cell-based; settings: Homo sapiens, CCRF-CEM
Method: To assess the antiproliferative effects of the tested substances in vitro, tumor cell line CCRF-CEM derived from acute lymphoblastic leukemia and normal (healthy) HUVEC endothelial cells from umbilical vein were used. Both of these cell lines were cultured under optimal conditions for their growth in the appropriate medium in plastic bottles or plastic Petri dishes of various sizes (TPP, BD Biosciences) at 37° C., 5% CO2 and 95% humidity. HUVEC cells were purchased from BD Biosciences. CCRF-CEM cell line was obtained from ATCC/LGC Standards (American Type Cell Collection).
Suspension cell line CCRF-CEM is a continuous in vitro culture of acute lymphoblastic leukemia. Cell line CCRF-CEM was grown in RPMI 1640 medium (Sigma-Aldrich, cat. No. R8758) supplemented with 2 mmol·l^−1 glutamine (Invitrogen, cat. No. 35050-038), 10% fetal bovine serum (FBS; Sigma-Aldrich, cat. No. F9665), 100 IU/ml penicillin, 100 μg/ml streptomycin (Sigma-Aldrich, cat. No. P0781). Passaging was carried out 2-3 times a week. Population doubling time of CCRF-CEM cells under the used culture conditions is 20 hours.
For testing of the sensitivity of cell lines to studied helquats XTT cytotoxicity/proliferation assay for determination of cell viability was used. This method is based on the ability of metabolically active cells to reduce the yellow tetrazolium salt XTT to orange formazan. The rate of conversion is measured as the increase in absorbance at 492 nm and is proportional to the enzymatic activity of mitochondrial dehydrogenases and thus the number of metabolically active (viable) cells. The output is the IC50 value corresponding to the concentration of the test substance that causes a decrease in the number of viable cells by half (i.e. 50% slowdown of cell division) relative to the control, untreated population. Thus it reflects the effectiveness of the test substance towards the tested cell line.
Cells in exponential growth phase were plated into 96-well microtiter plate at a concentration of 3000 cells per well. Each well contained 90 μl of cell suspension. The following day, 10 μl of 10× concentrated test substances was added. Effect of helquats has been studied in the concentration range 1-100 μmol·l^−1 (or 1, 2.5, 5, 7.5, 10; 15; 25; 50 and 100 μmol·l^−1). In addition to the part of the plate containing the mentioned dilutions of test compounds there were always two control columns present, first column with medium alone (i.e. blank) and the second column with the cells in medium without test compounds (control). Into the blank and control wells the same volume of solvent (water) as the volume of the substances was added. After 72 hours of treatment with substances the measurement of viability was performed according to the manufacturer instructions. Briefly, into each well of a 96-well microtiter plate 50 μl of the prepared working solution of XTT (detection reagent) was added and then the microtiter plate was returned to the CO2 incubator. After 2 hours, the absorbance of each well at 492 nm (reference wavelength 690 nm) was measured using a multifunctional microplate reader (Tecan Genios, Austria).
The results of determination of the viability of cancer and normal cells after treatment with different concentrations of test substances are summarized in Table 9. […] Each concentration of a helquat was tested in triplicates within one IC50 value determination. Each of these IC50 value determinations was repeated in at least three independent experiments. Values above 100 μmol·l^−1 were obtained by extrapolation of data measured in the concentration range 0-100 μmol·l^−1 of helquats.

[4] = 72 hours of treatment, values above 100 μmol·l^−1 obtained by extrapolation, read-out: IC50 HUVEC
[5] = 72 hours of treatment, read-out: IC50 CCRF CEM
[6] = 72 hours, summary of table 9, read-out: concentrations non-toxic towards HUVEC cells
[7] = 72 hours, summary of table 9, read-out: concentrations toxic towards CCRF-CEM cells

Structure (SMILES) | IC50 [1, 4] | Quantification of expression relative to control (%) ([2]; 10 μmol · l^−1) | Quantification of expression relative to control (%) ([2]; 50 μmol · l^−1) | Quantification of expression relative to control (%) ([2]; 150 μmol · l^−1) | activity at 50 µM [2] | IC50 [3, 5] | IC50 [1, 6] | inhibition at 50 µM [2] | IC50 [3, 7]
Cc1c(C)c2c(c3c1CC[n+]1ccc4ccccc4c1-3)-c1cccc(/C=C/c3ccc(-c4ccc(-c5cccs5)s4)s3)[n+]1CC2.O=S(=O)([O-])C(F)(F)F.O=S(=O)([O-])C(F)(F)F [VDJA-C13-6, (E)-11-(2-([2,2′;5′,2″-terthiophen]-5-yl)vinyl)-6,7-dimethyl-4,5,8,9-tetrahydroisoquinolino[1,2-a]pyrido[1,2-k][2,9]phenanthroline-3,10-diium trifluoromethanesulfonate] | ≥ 51 µM | 59.0 ± 17.9% | 27.1 ± 0.8% | 15.3 ± 2.9% | 27% | 11 to 25 µM | – | – | –
C(=C\c1cc2ccccc2[n+]2c1-c1c(ccc3c1-c1cccc[n+]1CCC3)CCC2)/c1ccc2[nH]ccc2c1 [MSC-C9-10, 19-((E)-2-(1H-indol-5-yl)vinyl)-6,7,8,11,12,13-hexahydropyrido[1′″,2′″:1″,2″]azepino[4″,3″:5′,6′]benzo[1′,2′:3,4]azepino[1,2-a]quinoline-5,14-diium trifluoromethanesulfonate] | ≥ 100 µM | – | – | – | 56% | ≤ 10 µM | > 100 µM | > 40% | < 25 µM
C(=C\c1c[nH]c2c1ccc1ccccc12)/c1cc2ccccc2[n+]2c1-c1c(ccc3c1-c1cccc[n+]1CCC3)CCC2 [MSC-C13-16, 19-((E)-2-(1H-benzo[g]indol-3-yl)vinyl)-6,7,8,11,12,13-hexahydropyrido[1′″,2′″:1″,2″]azepino[4″,3″:5′,6′]benzo[1′,2′:3,4]azepino[1,2-a]quinoline-5,14-diium trifluoromethanesulfonate] | ≥ 100 µM | – | – | – | 85% | ≤ 10 µM | > 100 µM | > 10% | < 25 µM
Cn1c(/C=C/c2cc3ccccc3[n+]3c2-c2c(ccc4c2-c2cccc[n+]2CCC4)CCC3)cc2ccccc21 [MSC-C10-10, 19-((E)-2-(1-methyl-1H-indol-2-yl)vinyl)-6,7,8,11,12,13-hexahydropyrido[1′″,2′″:1″,2″]azepino[4″,3″:5′,6′]benzo[1′,2′:3,4]azepino[1,2-a]quinoline-5,14-diium trifluoromethanesulfonate] | ≥ 100 µM | – | – | – | 85% | 11 to 25 µM | > 100 µM | > 10% | < 25 µM
